Test results reported in PubChem BioAssay (NCI).
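Method: 48-hour compound exposure of cells in 96-well plates, five concentrations, linear interpolation of endpoints. GI50: concentration for 50% inhibition of growth. TGI: concentration producing complete growth inhibition.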

Experiments:
Assay in all cases: DTP human tumour cell line panel, 48 h
NCI-H522 lung = tested on: NCI-H522 lung
MCF7 breast = tested on: MCF7 breast
HOP-62 NSCLC = tested on: HOP-62 NSCLC
HCC-2998 colon = tested on: HCC-2998 colon
MALME-3M melanoma = tested on: MALME-3M melanoma
UACC-257 melanoma = tested on: UACC-257 melanoma
NCI-H226 lung = tested on: NCI-H226 lung
786-0 renal = tested on: 786-0 renal
BT-549 breast = tested on: BT-549 breast
SN12C renal = tested on: SN12C renal
MDA-MB-435 = tested on: MDA-MB-435
SW-620 colon = tested on: SW-620 colon
T-47D breast = tested on: T-47D breast
ACHN renal = tested on: ACHN renal
UACC-62 melanoma = tested on: UACC-62 melanoma
CCRF-CEM leukemia = tested on: CCRF-CEM leukemia
HCT-116 colon = tested on: HCT-116 colon
SK-OV-3 ovarian = tested on: SK-OV-3 ovarian
CAKI-1 renal = tested on: CAKI-1 renal
LOX IMVI melanoma = tested on: LOX IMVI melanoma
EKVX NSCLC = tested on: EKVX NSCLC
HL-60(TB) leukemia = tested on: HL-60(TB) leukemia
OVCAR-8 ovarian = tested on: OVCAR-8 ovarian
SF-268 CNS = tested on: SF-268 CNS
SK-MEL-5 melanoma = tested on: SK-MEL-5 melanoma
TK-10 renal = tested on: TK-10 renal
SNB-19 CNS = tested on: SNB-19 CNS
RXF 393 renal = tested on: RXF 393 renal

O=C1Nc2ccc(F)cc2/C1=C/c1cccc(OCc2ccccn2)c1
GI50 (NCI-H522 lung): 15.9 µM | TGI (NCI-H522 lung): 33 µM | GI50 (MCF7 breast): 12.1 µM | TGI (MCF7 breast): 26.4 µM | GI50 (HOP-62 NSCLC): 14.4 µM | TGI (HOP-62 NSCLC): 30.8 µM | GI50 (HCC-2998 colon): 16.3 µM | TGI (HCC-2998 colon): 30.3 µM | GI50 (MALME-3M melanoma): 17.5 µM | TGI (MALME-3M melanoma): 40.1 µM | GI50 (UACC-257 melanoma): 14.4 µM | TGI (UACC-257 melanoma): 30.1 µM | GI50 (NCI-H226 lung): 15 µM | TGI (NCI-H226 lung): 29.9 µM | GI50 (786-0 renal): 15 µM | TGI (786-0 renal): 29.7 µM | GI50 (BT-549 breast): 15 µM | TGI (BT-549 breast): 30.1 µM | GI50 (SN12C renal): 16.8 µM | TGI (SN12C renal): 34.4 µM | GI50 (MDA-MB-435): 18.5 µM | TGI (MDA-MB-435): 36.6 µM | GI50 (SW-620 colon): 17.2 µM | TGI (SW-620 colon): 36 µM | GI50 (T-47D breast): 15 µM | TGI (T-47D breast): 34 µM | GI50 (ACHN renal): 16.4 µM | TGI (ACHN renal): 33.5 µM | GI50 (UACC-62 melanoma): 13.6 µM | TGI (UACC-62 melanoma): 27.7 µM | GI50 (CCRF-CEM leukemia): 25.9 µM | TGI (CCRF-CEM leukemia): 71.8 µM | GI50 (HCT-116 colon): 13.7 µM | TGI (HCT-116 colon): 28.5 µM | GI50 (SK-OV-3 ovarian): 18.6 µM | TGI (SK-OV-3 ovarian): 50 µM | GI50 (CAKI-1 renal): 19.6 µM | TGI (CAKI-1 renal): 55.5 µM | GI50 (LOX IMVI melanoma): 14.9 µM | TGI (LOX IMVI melanoma): 29 µM | GI50 (EKVX NSCLC): 13 µM | TGI (EKVX NSCLC): 26.9 µM | GI50 (HL-60(TB) leukemia): 16.4 µM | TGI (HL-60(TB) leukemia): 39.3 µM | GI50 (OVCAR-8 ovarian): 16.1 µM | TGI (OVCAR-8 ovarian): 31.7 µM | GI50 (SF-268 CNS): 17.1 µM | TGI (SF-268 CNS): 39.3 µM | GI50 (SK-MEL-5 melanoma): 16.6 µM | TGI (SK-MEL-5 melanoma): 30.5 µM | GI50 (TK-10 renal): 18.1 µM | TGI (TK-10 renal): 32.5 µM | GI50 (SNB-19 CNS): 17.2 µM | TGI (SNB-19 CNS): 33.2 µM | GI50 (RXF 393 renal): 13.3 µM
